{"source": "ChEMBL document CHEMBL2390934", "about": "“Synthesis and evaluation of phenoxyoxazaphospholidine, phenoxyoxazaphosphinane, and benzodioxaphosphininamine sulfides and related compounds as potential anti-malarial agents” (Bioorg Med Chem Lett, 2013)", "note": "Active and inactive are the calls of the source. The calls are words filed in the database; no cut-off is given here."}
{"system": "Plasmodium falciparum", "assay": "Antimalarial activity against chloroquine-resistant Plasmodium falciparum K1/Thailand infected in O positive erythrocytes assessed as parasite lactate dehydrogenase activity after 72 hrs", "assay_type": "functional, organism-based", "conditions": "not given"}
{"smiles": "CCOP(=S)(NCCCCNc1ccnc2cc(Cl)ccc12)Oc1ccc(C(F)(F)F)cc1", "note": "(configuration not stated)", "Activity": "Active"}
{"system": "Plasmodium falciparum", "assay": "Antimalarial activity against Plasmodium falciparum 3D7 infected in O positive erythrocytes assessed as parasite lactate dehydrogenase activity after 72 hrs", "assay_type": "functional, organism-based", "conditions": "3D7, 72 h", "units": {"IC50": "µM"}}
{"smiles": "Cc1cc2c(c([N+](=O)[O-])c1)OP(=S)(NC(C)C)OC2", "note": "(configuration not stated)", "IC50": "> 128"}
{"smiles": "Cc1ccc(OP2(=S)NCCO2)c([N+](=O)[O-])c1", "note": "(configuration not stated)", "IC50": "> 128"}
{"smiles": "Cc1cc([N+](=O)[O-])ccc1OP1(=S)NCCO1", "note": "(configuration not stated)", "IC50": 51}
{"smiles": "CCOP(=O)(NC(C)C)Oc1cc(C)c([N+](=O)[O-])cn1", "note": "(configuration not stated)", "IC50": 25}
{"smiles": "CC1COP(=S)(Oc2ccc(C(F)(F)F)cc2)N1", "note": "(racemic)", "IC50": "> 128"}
{"smiles": "CC(C)CNP1(=S)OCc2cc([N+](=O)[O-])ccc2O1", "note": "(configuration not stated)", "IC50": 118}
{"smiles": "CCOP(=S)(NCCCCNc1ccnc2cc(Cl)ccc12)Oc1ccc(C(F)(F)F)cc1", "note": "(configuration not stated)", "IC50": 0.038}
{"smiles": "CCOP(=S)(NC1CCCC1)Oc1ccc2ncccc2c1", "note": "(configuration not stated)", "IC50": 19}
{"smiles": "CCOP(=O)(NC(C)C)Oc1ccc(C(F)(F)F)cn1", "note": "(configuration not stated)", "IC50": 25}
{"smiles": "CCOP(=O)(NC1CCCC1)Oc1ccc(C(F)(F)F)cn1", "note": "(configuration not stated)", "IC50": 23}
{"smiles": "FC(F)(F)c1ccc(OP2(=S)NCCCO2)cc1", "note": "(configuration not stated)", "IC50": 62}
{"smiles": "FC(F)(F)c1ccc(OP2(=S)NCCO2)cc1", "note": "(configuration not stated)", "IC50": 108}
{"smiles": "Cc1ccc(OP2(=S)NC(C)CO2)c([N+](=O)[O-])c1", "note": "(mixture of isomers)", "IC50": 77}
{"smiles": "NCCCCNc1ccnc2cc(Cl)ccc12", "IC50": 0.64}
{"smiles": "Cc1cc([N+](=O)[O-])ccc1OP1(=S)NCCCO1", "note": "(configuration not stated)", "IC50": 128}
{"smiles": "CC(C)NP1(=S)OCc2cc([N+](=O)[O-])ccc2O1", "note": "(configuration not stated)", "IC50": 108}
{"smiles": "CCOP(=O)(NC(C)C)Oc1cc(O)ccn1", "note": "(configuration not stated)", "IC50": 128}
{"smiles": "FC(F)(F)c1ccc(OP2(=S)OCCS2)cc1", "note": "(configuration not stated)", "IC50": 64}
{"smiles": "CC(C)CNP1(=S)OCc2ccccc2O1", "note": "(configuration not stated)", "IC50": 58}
{"smiles": "CCOP(=S)(NC(C)C)Oc1ccc(C(F)(F)F)cn1", "note": "(configuration not stated)", "IC50": 29}
{"smiles": "Cc1ccc([N+](=O)[O-])c(OP2(=S)NCCCO2)c1", "note": "(configuration not stated)", "IC50": "> 128"}
{"smiles": "CCOP(=O)(NC(C)C)Oc1ccc2ccccc2c1", "note": "(configuration not stated)", "IC50": 87}
{"smiles": "Cc1ccc(OP2(=S)NCCCO2)c([N+](=O)[O-])c1", "note": "(configuration not stated)", "IC50": "> 128"}
{"smiles": "CCOP(=O)(NC(C)C)Oc1ccc2ccccc2c1[N+](=O)[O-]", "note": "(configuration not stated)", "IC50": 98}
{"smiles": "CCCNP1(=S)OCc2ccccc2O1", "note": "(configuration not stated)", "IC50": 95}
{"smiles": "CCOP(=O)(NC(C)C)Oc1cc(C)ccn1", "note": "(configuration not stated)", "IC50": 128}
{"smiles": "Cc1ccc([N+](=O)[O-])cc1OP1(=S)NCCO1", "note": "(configuration not stated)", "IC50": 24}
{"smiles": "CC(C)NP1(=S)OCc2ccccc2O1", "note": "(configuration not stated)", "IC50": 62}
{"smiles": "Cc1ccc([N+](=O)[O-])cc1OP1(=S)NCCCO1", "note": "(configuration not stated)", "IC50": 108}
{"smiles": "CCOP(=O)(NC(C)C)Oc1nccc(C)c1[N+](=O)[O-]", "note": "(configuration not stated)", "IC50": 128}
{"smiles": "CCOP(=S)(NC1CCCC1)Oc1cccc2cccnc12", "note": "(configuration not stated)", "IC50": 25}
